Values quoted from earlier work, collected in patent publication US20180344730A1, “MEDICAMENT FOR TREATING MENTAL AND BEHAVIOURAL DISORDERS” (Sumitomo Dainippon Pharma Co., Ltd., priority 2012, published 2018).

Key:
[1] = biological target: T1, serotonin 5-HT1A receptors (Homo sapiens, UniProt P08908)
T1 sequence (P08908 1-422): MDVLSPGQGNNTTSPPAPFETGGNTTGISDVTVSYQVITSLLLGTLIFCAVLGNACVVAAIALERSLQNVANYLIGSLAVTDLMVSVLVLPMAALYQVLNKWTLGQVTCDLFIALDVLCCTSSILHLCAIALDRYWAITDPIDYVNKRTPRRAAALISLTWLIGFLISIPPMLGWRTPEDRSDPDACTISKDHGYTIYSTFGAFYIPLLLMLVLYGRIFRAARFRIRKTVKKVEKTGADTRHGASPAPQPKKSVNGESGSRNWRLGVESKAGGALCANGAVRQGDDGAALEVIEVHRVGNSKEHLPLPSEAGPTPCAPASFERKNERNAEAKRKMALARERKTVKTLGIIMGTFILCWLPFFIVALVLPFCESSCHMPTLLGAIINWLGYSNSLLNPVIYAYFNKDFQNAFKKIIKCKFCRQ

[2] = biological target: T2, noradrenaline α2C receptors (Homo sapiens, UniProt P18825)
T2 sequence (P18825 1-462): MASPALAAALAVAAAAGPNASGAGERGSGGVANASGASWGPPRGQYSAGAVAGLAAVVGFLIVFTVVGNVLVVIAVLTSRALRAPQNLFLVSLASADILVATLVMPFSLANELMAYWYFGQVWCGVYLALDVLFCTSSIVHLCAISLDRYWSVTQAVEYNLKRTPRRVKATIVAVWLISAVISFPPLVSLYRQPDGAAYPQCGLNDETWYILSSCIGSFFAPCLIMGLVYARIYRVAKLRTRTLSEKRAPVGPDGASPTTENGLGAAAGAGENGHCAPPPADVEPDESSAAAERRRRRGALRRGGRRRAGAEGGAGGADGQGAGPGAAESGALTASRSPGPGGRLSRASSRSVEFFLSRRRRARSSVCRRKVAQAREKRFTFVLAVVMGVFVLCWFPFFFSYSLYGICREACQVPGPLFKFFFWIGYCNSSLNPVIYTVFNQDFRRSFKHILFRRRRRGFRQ

dopamine D2 receptors = dopamine D2 receptors (Homo sapiens, UniProt P14416)
Sequence of dopamine D2 receptors (P14416 whole entry): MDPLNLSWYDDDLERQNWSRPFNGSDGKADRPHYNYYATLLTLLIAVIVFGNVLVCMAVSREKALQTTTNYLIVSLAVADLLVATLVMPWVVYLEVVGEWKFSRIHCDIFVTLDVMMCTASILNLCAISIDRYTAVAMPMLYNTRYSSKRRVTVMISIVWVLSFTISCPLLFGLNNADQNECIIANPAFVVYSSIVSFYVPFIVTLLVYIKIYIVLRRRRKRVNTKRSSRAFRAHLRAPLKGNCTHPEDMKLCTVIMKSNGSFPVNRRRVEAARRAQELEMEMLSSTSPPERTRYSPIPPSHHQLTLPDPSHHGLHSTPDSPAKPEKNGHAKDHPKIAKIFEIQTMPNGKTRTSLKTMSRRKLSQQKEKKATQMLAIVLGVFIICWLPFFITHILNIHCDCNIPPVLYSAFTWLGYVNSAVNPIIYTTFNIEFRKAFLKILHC

[3] = biological target: serotonin 5-HT7 receptors (Homo sapiens, UniProt P34969)
Sequence of serotonin 5-HT7 receptors (P34969 whole entry): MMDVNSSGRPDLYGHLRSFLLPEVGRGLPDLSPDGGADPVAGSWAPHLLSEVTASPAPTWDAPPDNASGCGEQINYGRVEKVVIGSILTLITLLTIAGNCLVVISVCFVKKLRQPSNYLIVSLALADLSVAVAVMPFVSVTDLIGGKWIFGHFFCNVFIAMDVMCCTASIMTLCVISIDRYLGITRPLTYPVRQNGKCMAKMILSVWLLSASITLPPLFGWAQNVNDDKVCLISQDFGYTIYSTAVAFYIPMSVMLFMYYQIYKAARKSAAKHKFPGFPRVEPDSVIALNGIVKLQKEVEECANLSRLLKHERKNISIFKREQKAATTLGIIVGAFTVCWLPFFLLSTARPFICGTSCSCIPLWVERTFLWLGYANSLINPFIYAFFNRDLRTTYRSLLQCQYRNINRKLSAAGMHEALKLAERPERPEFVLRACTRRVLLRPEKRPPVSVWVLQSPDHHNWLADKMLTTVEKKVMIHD

[4] = biological target: serotonin 5-HT2A receptors (Homo sapiens, UniProt P28223)
Sequence of serotonin 5-HT2A receptors (P28223 whole entry): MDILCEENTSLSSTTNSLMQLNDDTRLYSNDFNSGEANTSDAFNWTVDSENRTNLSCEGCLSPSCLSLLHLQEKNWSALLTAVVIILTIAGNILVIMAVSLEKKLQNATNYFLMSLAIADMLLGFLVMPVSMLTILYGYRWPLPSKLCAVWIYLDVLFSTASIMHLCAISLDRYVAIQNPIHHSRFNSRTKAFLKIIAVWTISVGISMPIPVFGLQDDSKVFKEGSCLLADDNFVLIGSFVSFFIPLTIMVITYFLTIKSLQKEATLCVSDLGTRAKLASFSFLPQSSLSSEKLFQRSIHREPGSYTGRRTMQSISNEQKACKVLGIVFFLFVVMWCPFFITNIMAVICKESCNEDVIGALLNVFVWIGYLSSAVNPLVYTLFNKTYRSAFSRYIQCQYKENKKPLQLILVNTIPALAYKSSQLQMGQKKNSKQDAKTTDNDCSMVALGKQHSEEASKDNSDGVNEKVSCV

muscarinic M1 receptors = biological target: T3, muscarinic M1 receptors (Homo sapiens, UniProt P11229)
T3 sequence (P11229 1-460): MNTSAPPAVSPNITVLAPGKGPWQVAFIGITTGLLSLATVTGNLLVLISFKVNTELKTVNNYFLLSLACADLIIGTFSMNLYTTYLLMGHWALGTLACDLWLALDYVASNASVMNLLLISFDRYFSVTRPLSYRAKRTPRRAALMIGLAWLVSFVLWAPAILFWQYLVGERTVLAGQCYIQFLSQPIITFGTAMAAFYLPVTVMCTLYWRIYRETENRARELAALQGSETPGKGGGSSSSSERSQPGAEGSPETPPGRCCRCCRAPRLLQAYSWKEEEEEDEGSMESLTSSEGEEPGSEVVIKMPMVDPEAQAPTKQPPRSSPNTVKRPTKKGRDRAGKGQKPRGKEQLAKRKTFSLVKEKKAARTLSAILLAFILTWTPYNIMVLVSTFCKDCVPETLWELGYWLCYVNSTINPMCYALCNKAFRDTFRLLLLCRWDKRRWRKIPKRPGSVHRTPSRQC

histamine H1 receptors = histamine H1 receptors (Homo sapiens, UniProt P35367)
Sequence of histamine H1 receptors (P35367 whole entry): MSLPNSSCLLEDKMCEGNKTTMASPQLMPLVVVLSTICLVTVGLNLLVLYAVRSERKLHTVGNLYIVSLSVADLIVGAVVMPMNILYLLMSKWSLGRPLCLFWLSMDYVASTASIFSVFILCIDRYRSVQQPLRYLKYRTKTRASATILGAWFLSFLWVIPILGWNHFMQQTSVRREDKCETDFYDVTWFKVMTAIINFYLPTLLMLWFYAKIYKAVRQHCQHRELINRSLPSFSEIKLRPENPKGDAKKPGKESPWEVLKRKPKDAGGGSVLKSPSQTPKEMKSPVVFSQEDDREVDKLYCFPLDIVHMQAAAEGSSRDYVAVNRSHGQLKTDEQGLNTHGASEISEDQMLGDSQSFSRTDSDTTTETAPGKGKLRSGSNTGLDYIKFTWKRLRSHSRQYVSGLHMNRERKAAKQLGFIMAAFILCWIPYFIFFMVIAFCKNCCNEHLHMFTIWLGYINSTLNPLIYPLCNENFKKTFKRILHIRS

- affinity for serotonin 5-HT1A receptors [1]: high affinity
- affinity for noradrenaline α2C receptors [2]: high affinity
- affinity for dopamine D2 receptors (dopamine D2 receptors): high affinity
- affinity for serotonin 5-HT7 receptors [3]: high affinity
- affinity for serotonin 5-HT2A receptors [4]: high affinity
- affinity for muscarinic M1 receptors (muscarinic M1 receptors): minimal to no affinity
- affinity for histamine H1 receptors (histamine H1 receptors): minimal to no affinity
SMILES: O=C1[C@@H]2[C@H]3CC[C@H](C3)[C@@H]2C(=O)N1C[C@@H]1CCCC[C@H]1CN1CCN(c2nsc3ccccc23)CC1 [Lurasidone, (3aR, 4S, 7R, 7aS)-2-{(1R, 2R)-2-[4-(1,2-benzisothiazol-3-yl)piperazin-1-ylmethyl]cyclo-hexylmethyl}hexahydro-4,7-methano-2H-isoindole-1,3-dione]
